Laboratory results: patent US20080207752A1, “Poly (epsilon-caprolactone-co-methylmethacrylate), method for preparing the same using super critical fluid, and method for preparing therapeutic agent for skin diseases such as acne, atopy and athlete's foot comprising the same” (priority 2007, published 2008)

Test: Particle size measured using a particle size analyzer
Type: physicochemical
Details: before supercritical processing
Method: At first, pretreated salicylic acid is 50-100 micron. In Examples, the size of salicylic acid particles prepared in following manners was measured using a particle size analyzer. Spherical nanoparticles of which the particle size is in the range of 50 to 300 nm can be obtained according to the presence of a poly(ε-caprolactone-co-methylmethacrylate) as a biodegradable polymer and operating conditions in the reactor.
As shown in the following Table 1, the present Examples represent the operating conditions of the reactor in the step of formation of a spherical structure. The temperature and the pressure of the reactor must be each above 304.2 K and 73.8 bar. The operating parameters in the reactor are the temperature and the pressure in reactor, the amount of carbon dioxide as a supercritical fluid, and the amount of the mixed solution prepared in the preparation step. In Example 1, the mixed solution contains salicylic acid of 0.0016% by weight alone without a biodegradable polymer. In Example 2 to 8, the solution contains both of salicylic acid of 0.0016% by weight and the poly(ε-caprolactone-co-methylmethacrylate) of 0.0014% by weight as a biodegradable polymer. […] In Examples 1 and 3, the change was measured at 313K and 323K by adjusting the reactor temperature. […]

O=C(O)c1ccccc1O [salicylic acid]
particle size of pretreated salicylic acid: 50-100 micron
